Source: patent US11819561B2, “Oral care compositions” (Colgate-Palmolive Company, priority 2020, dated 2023)

How the values were obtained:
bacteria in saliva = assay: Alamar blue test for antimicrobial activity; format: cell-based
Protocol: Antimicrobial activity of the formulations is tested to determine whether the chlorhexidine is fully active. The Alamar blue test for antimicrobial activity is conducted according to standard methodology. Bacteria inoculum is prepared by diluting fresh saliva 2× with deionized water, followed by centrifugation at 8000 G/25° C. for 10 min, and decanting the upper clear liquid into a glass jar. The negative control (A) is distilled water. The positive control (B) is 2 wt. % chlorhexidine gluconate solution. The APG control (C) is a 10 wt. % decyl glucoside solution. The two test solutions are: (D) 2 wt. % chlorhexidine gluconate with 10 wt. % decyl glucoside; and (E) 2 wt. % chlorhexidine gluconate with 10 wt. % decyl glucoside solution, with 14% w/w STPP added. Each of the test solutions is combined with saliva in a weight ratio of 1:10 (solution to saliva). The pH of each mixture is adjusted to 5.5-7 by adding citric acid. The mixtures are vortexed for 1 minute, and incubated at 37° C. for 30 minutes. Subsequent addition of 200 μL of Alamar Blue dye immediately produced blue color in all samples and pictures were taken for comparison at different time intervals (0 hours, 24 hours, 48 hours) to show the evolution of color development. A blue color indicates bacterial kill in saliva and no bacterial growth, while a pink color indicates viable bacteria are still present. […]

[1] = Visual observation of formulation clarity and precipitation; format: physicochemical; details: Example 4, other cationic surfactants
Protocol: For the following experiments, a 0.2 wt. % aqueous solution of chlorhexidine gluconate, and a 10.0 wt. % aqueous solution of decyl glucoside (“APG”) are prepared. The pH of the decyl glucoside solution is adjusted to 5.5-7.0 using citric acid. For each formulation, the appropriate amount of the decyl glucoside solution is added to appropriate amounts of the chlorhexidine stock solution. STPP is then added to each formulation, and the mixture is agitated by a bath sonicator until no large solids remained. Additional citric acid is added to adjust the pH to 5.5-7.0. The formulations are then agitated for an additional five minutes, then allowed to equilibrate for 30 minutes before observation and transmittance measurements. For the following experiments, a 0.2 wt. % aqueous solution of chlorhexidine gluconate, and a 2.0 wt. % aqueous solution of CAPB are prepared. STPP is added to the chlorhexidine solution to provide 1.6 wt. % STPP. For each formulation, the appropriate amount of the CAPB solution is added to appropriate amounts of the chlorhexidine/STPP stock solution. The mixture is agitated by a bath sonicator, and then additional citric acid is added to adjust the pH to 6.12-6.19. The formulations are then agitated for an additional five minutes, then allowed to equilibrate for 18 hours before observation. […]

Compound: CCCCCCCCCCO[C@@H]1O[C@H](CO)[C@@H](O)[C@H](O)[C@H]1O [Sample (C) (APG contr), decyl glucoside]
- Alamar Blue color change (bacteria in saliva; Example 1 (APG)): color change from blue to pink after two days

Compound: benzalkonium chloride
- Stabilization effect on CHX/STPP [1]: stabilization effect was not observed

Compound: cocamidopropyl betaine [Sample (C) (CAPB contr)]
- Alamar Blue color change (bacteria in saliva; Example 2 (CAPB)): color change from blue to pink after two days
